Values joined by “and” are separate entries in the source; they are usually repeats but may differ in a detail not shown here. Identical values can stand only once. “Also recorded” adds a separate entry of the source.

Data on five molecules can be found in PMC11242892, “Ceanothanes Derivatives as Peripheric Anionic Site and Catalytic Active Site Inhibitors of Acetylcholinesterase: Insights for Future Drug Design” (International Journal of Molecular Sciences, 2024).

For assay [1], the target named is T1, acetylcholinesterase (AChE from Electrophorus electricus) (Electrophorus electricus, UniProt O42275).
T1 construct: purchased Sigma-Aldrich
T1 sequence (O42275 24-633): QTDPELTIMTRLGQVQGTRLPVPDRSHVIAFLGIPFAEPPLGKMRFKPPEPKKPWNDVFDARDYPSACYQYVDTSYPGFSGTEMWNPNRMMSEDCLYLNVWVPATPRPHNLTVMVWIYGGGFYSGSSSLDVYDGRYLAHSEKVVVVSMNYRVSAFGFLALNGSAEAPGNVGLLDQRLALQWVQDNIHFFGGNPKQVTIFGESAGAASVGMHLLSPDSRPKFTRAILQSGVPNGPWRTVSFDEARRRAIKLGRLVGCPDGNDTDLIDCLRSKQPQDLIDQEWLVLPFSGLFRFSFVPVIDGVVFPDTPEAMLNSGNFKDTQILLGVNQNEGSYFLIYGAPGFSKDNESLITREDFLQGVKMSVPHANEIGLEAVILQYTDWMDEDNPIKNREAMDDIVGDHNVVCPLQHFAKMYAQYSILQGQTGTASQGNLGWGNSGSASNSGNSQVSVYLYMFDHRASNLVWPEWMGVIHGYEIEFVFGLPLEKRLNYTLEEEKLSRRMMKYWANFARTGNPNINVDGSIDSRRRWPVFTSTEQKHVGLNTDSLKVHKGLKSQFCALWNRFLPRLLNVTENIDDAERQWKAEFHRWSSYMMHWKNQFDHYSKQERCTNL
The experiment in a line: Ellman assay, AChE inhibitory activity. The conditions noted are these: IC50 ± SEM, Ellman's assay. Type of assay: biochemical. As to the method: The Ellman assay was used to test acetylcholinesterase (AChE from Electrophorus electricus) inhibition activity. A mixture of the DTNB (125 µL), enzyme solution (25 µL), and compound solution (25 µL) was prepared and incubated at room temperature for 20 min. All the assays were under 0.1 M KH2PO4/K2HPO4 buffer, pH 8.0. The substrate was added to start the enzymatic reaction. […] All measurements were performed fivefold as triplicate. The compounds were assayed in a dilution interval of 15 to 500 µg/mL.
For orientation: In Ellman's method for cholinesterases, released thiocholine reacts with DTNB.

The next assay deals with T2, PAS of EeAChE (Electrophorus electricus, UniProt O42275).
T2 construct: purchased Sigma-Aldrich
T2 sequence (O42275 24-633): as above
The experiment in a line: Propidium iodide displacement assay. Type of assay: binding. Conditions: five units EeAChE, 1 µM propidium iodide solution, triplicate. Here is the method: By interacting with soluble β-amyloid peptides and facilitating their aggregation, the AChE peripheral anionic site (PAS) at the gorge’s edge contributes to AChE’s pro-aggregation capacity toward β-amyloid. […] The potential ability of compounds to bind PAS and thus block the pro-aggregation activity of AChE is possible to evaluate through competitive propidium displacement from the PAS of AChE.
The percentage inhibition was calculated by the following expression: 100 − (IFi/IF0 × 100), where IF1 and IF0 correspond to fluorescence intensities with and without the test compound, respectively. Each assay was carried out in triplicate independent experiments.

Assay [2] deals with T1, acetylcholinesterase (AChE from Electrophorus electricus). The experiment in a line: Kinetic characterization of AChE inhibition (Lineweaver–Burk). In kind it is biochemical. Conditions: for Vmax: Lineweaver–Burk; for α: alpha calculated from Lineweaver–Burk plots; for type of inhibition: from Lineweaver–Burk plots and alpha. Here is the method:
To investigate the inhibition mechanism of the tested compounds on AChE, a kinetic analysis was performed. The experiments were carried out using a combination of four substrate concentrations and three inhibitor concentrations with the aim to obtain a double reciprocal plot (Lineweaver–Burk), in which each point is the mean of three different experiments. A parallel control with no inhibitor in the mixture allowed adjusted activities to be measured at various times.

Consider `C=C(C)[C@@H]1CC[C@]2(C(=O)O)CC[C@]3(C)[C@H](CC[C@@H]4[C@@]5(C)[C@@H](C(=O)O)[C@H](O)C(C)(C)[C@@H]5CC[C@]43C)[C@@H]12` [Compound 1, Ceanothic acid], for which the IC50 is 47.4 µM and 47 µM in assay [1] (pH 8.0, average of triplicate); 47.4 µM in assay [1] (pH 8.0, triplicate). The “% Displacement of Propidium Iodide (Mean ± SEM)” value (“% Displacement … (Mean ± SEM)” below) on PAS of EeAChE worked out at 24.24 ± 0.32%.
As for `C=C(C)[C@@H]1CC[C@]2(C(=O)O)CC[C@]3(C)[C@H](CC[C@@H]4[C@@]5(C)[C@@H](C(=O)O)C(=O)C(C)(C)[C@@H]5CC[C@]43C)[C@@H]12` [Compound 2, 3-oxo-Ceanothic Acid], in assay [2], the Vmax amounted to 0.0032, the α was 1.01 and the type of inhibition result was “noncompetitive inhibitors”. The IC50 in assay [1] (pH 8.0, average of triplicate) is 5.28 µM and 5.3 µM. In assay [1] (pH 8.0, triplicate), the half-maximal inhibitory concentration (IC50) is 5.28 µM. In addition, the “% Displacement … (Mean ± SEM)” value on PAS of EeAChE stood at 28.71 ± 0.99%.
Turning to `C=C(C)[C@@H]1CC[C@]2(C(=O)OC)CC[C@]3(C)[C@H](CC[C@@H]4[C@@]5(C)[C@@H](C(=O)OC)[C@H](O)C(C)(C)[C@@H]5CC[C@]43C)[C@@H]12` [Compound 3, Ceanothic 2, 28-Dimethyl Ester], in assay [2], the Vmax was 0.0133, the α is given as 2.98 and the type of inhibition entry is on record as “mixed inhibitors”. Moreover, the IC50 in assay [1] (pH 8.0, average of triplicate) is 14.4 µM and 14 µM. Further, the IC50 in assay [1] (pH 8.0, triplicate) was 14.4 µM. In addition, the “% Displacement … (Mean ± SEM)” value on PAS of EeAChE is given as 27.01 ± 0.59%.
As to `C=C(C)[C@@H]1CC[C@]2(C(=O)O)CC[C@]3(C)[C@H](CC[C@@H]4[C@@]5(C)[C@@H](C(=O)O)[C@H](OCCCCBr)C(C)(C)[C@@H]5CC[C@]43C)[C@@H]12` [Compound 6, 3-(4-Bromobutoxy)-ceanothic Acid], in assay [2], the Vmax turned out to be 0.0086, the α is given as 0.98 and the type of inhibition entry is “noncompetitive inhibitors”. Further, in assay [1] (pH 8.0, average of triplicate), the IC50 was 8.4 µM and 8 µM. Further, half-maximal inhibition in assay [1] (pH 8.0, triplicate) (IC50) was put at 8.4 µM. Further, the “% Displacement … (Mean ± SEM)” value on PAS of EeAChE is 31.51 ± 1.38%.
As to `C=C(C)[C@@H]1CC[C@]2(C(=O)O)CC[C@]3(C)[C@H](CC[C@@H]4[C@@]5(C)[C@@H](C(=O)O)[C@H](OC(=O)c6ccco6)C(C)(C)[C@@H]5CC[C@]43C)[C@@H]12` [Compound 7, 3-O-Furoyl-ceanothic Acid], in assay [2], the Vmax came to 0.0205, the α is reported as 10.39 and the type of inhibition result is recorded as “mixed inhibitors; also recorded: mixed-competitive-type inhibitor”. For the same molecule, in assay [1] (pH 8.0, average of triplicate), the 50% inhibitory concentration (IC50) is 17.9 µM and 18 µM. This molecule also had an IC50 in assay [1] (pH 8.0, triplicate) of 17.9 µM. For the same molecule, the “% Displacement … (Mean ± SEM)” value on PAS of EeAChE came out at 28.50 ± 2.55%.

The IC50 is the midpoint of a concentration-inhibition curve. Low values mean greater potency, high ones weaker potency.
